The target of one test is T1, E. coli GroEL/ES (Escherichia coli, UniProt P0A6F5).
T1 construct: made in house; host or cells: GroEL in NEB 5-alpha E. coli; GroES in E. coli BL21 (DE3)
Nature of the test: GroEL/ES-mediated dMDH refolding assay. Format: biochemical. The method, then: Evaluating compounds for inhibition in the GroEL/ES-mediated dMDH refolding assay. All compounds were evaluated for inhibiting E. coli GroEL/ES-mediated refolding of the denatured MDH reporter enzyme. Reagent preparation: For these assays, four primary reagent stocks were prepared: 1) GroEL/ES-dMDH binary complex stock; 2) ATP initiation stock; 3) EDTA quench stock; 4) MDH enzymatic assay stock. Denatured MDH (dMDH) was prepared by 2-fold dilution of MDH (5 mg/ml, soluble pig heart MDH from Roche, product #10127248001) with denaturant buffer (7 M guanidine-HCl, 200 mM Tris, pH 7.4, and 50 mM DTT). MDH was completely denatured by incubating at room temperature for >45 min. The binary complex solutions were prepared by slowly adding the dMDH stock to a stirring stock with GroEL and GroES in folding buffer (50 mM Tris-HCl, pH 7.4, 50 mM KCl, 10 mM MgC2, and 1 mM DTT). […] For the ATP initiation stock, ATP solid was diluted into folding buffer to a final concentration of 2.5 mM. Quench solution contained 600 mM EDTA (pH 8.0). The MDH enzymatic assay stock consisted of 20 mM sodium mesoxalate and 1.6 mM NADH in reaction buffer (50 mM Tris-HCl, pH 7.4, 50 mM KCl, and 1 mM DTT).
Assay Protocol: First, 30 μL aliquots of the GroEL/ES-dMDH binary complex stocks were dispensed into clear, 384-well polystyrene plates. […] The chaperonin-mediated refolding cycles were initiated by addition of 20 μL of ATP stock (reagent concentrations during refolding cycle: 50 nM GroEL, 60 nM GroES, 12 nM dMDH, 1 mM ATP, and compounds of 100 μM to 46 nM, 3-fold dilution series) and the refolding reactions were incubated at 37° C. […] Next, the assay was quenched by addition of 10 μL of the EDTA stock to give a final concentration of 100 mM in the wells. […] A340 nm measurements were recorded at 0.5 minutes (start point) and at successive time points until the amount of NADH consumed reached ˜90% (end point, generally between 20-35 minutes).
Evaluating analogs for inhibiting GroEL/ES-mediated substrate refolding functions. […] We first evaluated all test compounds in our standard GroEL/ES-mediated refolding assays that employ either malate dehydrogenase (MDH) or rhodanese (Rho) as the denatured substrate reporter enzymes. When denatured, these enzymes are efficiently folded by GroEL/ES in the absence of inhibitors, and thus act as reporters to determine the degree of inhibition against the bacterial chaperonin system. Inhibition was examined in the presence of these two orthogonal substrates in order to support that GroEL/ES inhibitors were on-target. To further support on-target effects against GroEL/ES, we counter-screened for inhibition of the native MDH and Rho enzymatic reporter reactions, where test compounds were added after the denatured MDH and Rho substrate enzymes were completely refolded by GroEL/ES.

The target of a further test is T2, native rhodanese (Bos taurus, UniProt P00586).
T2 sequence (P00586 1-297): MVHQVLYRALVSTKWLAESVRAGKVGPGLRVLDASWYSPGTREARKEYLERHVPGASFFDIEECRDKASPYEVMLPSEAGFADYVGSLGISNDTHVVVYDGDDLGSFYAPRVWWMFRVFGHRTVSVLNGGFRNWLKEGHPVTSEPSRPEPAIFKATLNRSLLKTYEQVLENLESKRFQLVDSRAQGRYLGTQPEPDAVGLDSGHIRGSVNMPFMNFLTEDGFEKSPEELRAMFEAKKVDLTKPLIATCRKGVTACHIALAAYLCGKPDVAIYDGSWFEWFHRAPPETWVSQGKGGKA
In words: native rhodanese enzymatic activity counter-screen. Format: biochemical. The method, then: Counter-screening compounds for inhibition of native rhodanese enzymatic activity. Reagent Preparations & Assay Protocol: Reagents were identical to those used in the GroEL/ES-dRho refolding assay described above; however, the assay protocol differed in the sequence of compound addition to the wells. Compounds were pin-transferred after 50 minute incubation for the refolding cycle, but prior to the addition of the thiocyanate enzymatic assay stock. Thus, the refolding reactions were allowed to proceed for 50 min at 37° C. in the absence of test compounds, but the enzymatic activity of the refolded rhodanese reporter enzyme was monitored in the presence of test compounds (inhibitor concentration range during the enzymatic reporter reaction is 100 μM to 46 nM—3-fold dilutions). IC50 values for the rhodanese reporter enzyme were determined as described above. Results presented represent the averages of IC50 values obtained from at least four replicates.
All compounds were counter-screened for inhibiting the enzymatic activity of the native Rho reporter enzyme as per our previously reported procedure. Results presented represent the averages of IC50 values obtained from at least four replicates.
For orientation: Counterscreens check selectivity or assay interference.

The mark [1] stands for this setting: compounds added after refolding, read-out: Native Rho Activity IC50.
[2] abbreviates: without NfsB nitroreductase, read-out: GroEL/ES-dMDH Refolding IC50.

Read-outs that look alike come from different tables or passages of the source.

T1 sequence (P0A6F5 2-548): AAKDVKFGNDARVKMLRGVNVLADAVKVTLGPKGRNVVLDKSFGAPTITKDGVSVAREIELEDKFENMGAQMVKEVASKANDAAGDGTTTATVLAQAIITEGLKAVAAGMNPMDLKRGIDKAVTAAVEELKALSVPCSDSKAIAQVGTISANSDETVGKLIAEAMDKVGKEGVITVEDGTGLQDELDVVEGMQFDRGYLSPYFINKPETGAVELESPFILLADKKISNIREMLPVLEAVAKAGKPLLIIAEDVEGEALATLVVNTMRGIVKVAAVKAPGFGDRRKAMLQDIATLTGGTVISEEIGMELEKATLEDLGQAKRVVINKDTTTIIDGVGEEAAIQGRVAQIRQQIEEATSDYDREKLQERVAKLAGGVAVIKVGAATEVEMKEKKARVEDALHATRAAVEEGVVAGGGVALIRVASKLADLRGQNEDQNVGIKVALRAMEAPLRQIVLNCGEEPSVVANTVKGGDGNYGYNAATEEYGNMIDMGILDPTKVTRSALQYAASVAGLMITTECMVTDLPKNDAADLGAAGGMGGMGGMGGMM

Regarding `COc1ccc(C(=O)NN)cc1` [Compound 42, reference compound], the IC50 against E. coli GroEL/ES and at native rhodanese (setting [1]) was more than 100 µM throughout.
Turning to `COc1ccc(C(=O)N/N=C/c2cccc3ccccc23)cc1` [Compound 33, 4-methoxy-N′-(naphthalen-1-ylmethylene)benzohydrazide], the IC50 at E. coli GroEL/ES and at native rhodanese (setting [1]) was more than 100 µM in each case.
As to `O=C(N/N=C/c1ccc([N+](=O)[O-])o1)c1cccc2ccccc12` [Compound 22, N′-((5-nitrofuran-2-yl)methylene)-1-naphthohydrazide], the values for the IC50 against E. coli GroEL/ES and at native rhodanese (setting [1]) were 82 µM and 45 µM, respectively.
Take `O=C(N/N=C/c1ccc(O)c2ncccc12)c1ccc(O)cc1` [Compound 7, 4-hydroxy-N′-((8-hydroxyquinolin-5-yl)methylene)benzohydrazide]: the IC50 was found to be 43 µM on E. coli GroEL/ES and 72 µM on native rhodanese (setting [1]).
As to `O=C(N/N=C/c1ccc([N+](=O)[O-])o1)c1ccc(NS(=O)(=O)c2cccs2)cc1` [Compound 26, N-(4-(2-((5-nitrofuran-2-yl)methylene)hydrazine-1-carbonyl)phenyl)thiophene-2-sulfonamide], the IC50 against E. coli GroEL/ES was more than 100 µM; on native rhodanese (setting [1]) it was 44 µM.
For `COc1ccc(C(=O)N/N=C/c2ccc(O)cc2)cc1` [Compound 35, N′-(4-hydroxybenzylidene)-4-methoxybenzohydrazide], the IC50 against E. coli GroEL/ES and at native rhodanese (setting [1]) was more than 100 µM in each case.
As for `O=C(N/N=C/c1cccc2ncccc12)c1ccccc1` [Compound 32, N′-(quinolin-5-ylmethylene)benzohydrazide], the IC50 against E. coli GroEL/ES and at native rhodanese (setting [1]) was more than 100 µM throughout.
`O=C(N/N=C/c1ccc(O)cc1)c1ccccc1` [Compound 36, N′-(4-hydroxybenzylidene)benzohydrazide]: the IC50 against E. coli GroEL/ES and at native rhodanese (setting [1]) was more than 100 µM each time.
Consider `O=Cc1ccc(O)c2ncccc12` [Compound 40, reference compound], for which the IC50 at E. coli GroEL/ES (setting [2]) is more than 100 µM; at native rhodanese (setting [1]), 18 µM.
Turning to `CCOc1ccc(S(=O)(=O)Nc2ccc(C(=O)N/N=C/c3ccc(O)c4ncccc34)cc2)cc1` [Compound 15, 4-ethoxy-N-(4-(2-((8-hydroxyquinolin-5-yl)methylene)hydrazine-1-carbonyl)phenyl)benzenesulfonamide], the IC50 against E. coli GroEL/ES was 6 µM; on native rhodanese (setting [1]), more than 100 µM.
For `O=C(N/N=C/c1ccc(O)c2ncccc12)c1ccccc1` [Compound 5, N′-((8-hydroxyquinolin-5-yl)methylene)benzohydrazide], the values for the IC50 at E. coli GroEL/ES and on native rhodanese (setting [1]) were more than 100 µM and 95 µM, respectively.
Take `O=C(N/N=C/c1ccc(O)c2ncccc12)c1ccccc1Oc1ccccc1` [Compound 10, N′-((8-hydroxyquinolin-5-yl)methylene)-2-phenoxybenzohydrazide]: the IC50 was 15 µM on E. coli GroEL/ES and 89 µM on native rhodanese (setting [1]).
The corresponding values for `O=C(N/N=C/c1ccc(O)c2ncccc12)c1ccc(NS(=O)(=O)c2cccs2)cc1` [Compound 13, N-(4-(2-((8-hydroxyquinolin-5-yl)methylene)hydrazine-1-carbonyl)phenyl)thiophene-2-sulfonamide] are 3.2 µM and more than 100 µM.
In the case of `COc1ccc(C(=O)N/N=C/c2ccc(O)c3ncccc23)cc1` [Compound 1, N′-((8-hydroxyquinolin-5-yl)methylene)-4-methoxybenzohydrazide], the IC50 is 77 µM against E. coli GroEL/ES and 98 µM at native rhodanese (setting [1]).
For `O=[N+]([O-])c1ccc(O)c2ncccc12` [Nitroxoline, reference compound] the same measures were 50 µM and 2 µM.
With `O=C1CN(/N=C/c2ccc(O)c3ncccc23)C(=O)N1` [Compound 2, 1-(((8-hydroxyquinolin-5-yl)methylene)amino)imidazolidine-2,4-dione], the IC50 against E. coli GroEL/ES and on native rhodanese (setting [1]) was more than 100 µM in each case.
For the compound `COc1ccc(C(=O)N/N=C/c2ccc([N+](=O)[O-])o2)cc1` [Compound 20, 4-methoxy-N′-((5-nitrofuran-2-yl)methylene)benzohydrazide], the IC50 was 69 µM on E. coli GroEL/ES (setting [2]) and more than 100 µM on native rhodanese (setting [1]).
Regarding `O=C(N/N=C/c1ccc(O)c2ccccc12)c1ccccc1` [Compound 30, N′-((4-hydroxynaphthalen-1-yl)methylene)benzohydrazide], the IC50 against E. coli GroEL/ES was more than 100 µM; on native rhodanese (setting [1]), 97 µM.
For `COc1ccc(C(=O)N/N=C/c2cccc3ncccc23)cc1` [Compound 31, 4-methoxy-N′-(quinolin-5-ylmethylene)benzohydrazide], the IC50 against E. coli GroEL/ES and on native rhodanese (setting [1]) was more than 100 µM in each case.
As for `CN(C)c1ccc(C(=O)N/N=C/c2ccc([N+](=O)[O-])o2)cc1` [Compound 21, 4-(dimethylamino)-N′-((5-nitrofuran-2-yl)methylene)benzohydrazide], at E. coli GroEL/ES (standard dMDH and dRho refolding assays, no nitroreductase), the “GroEL/ES inhibition in words” value was “generally the most potent GroEL/ES inhibitors”. The IC50 at E. coli GroEL/ES (setting [2]) was 26 µM; at native rhodanese (setting [1]), more than 100 µM.
On to `O=C(N/N=C/c1ccc([N+](=O)[O-])o1)c1cccs1` [Compound 16, N′-((5-nitrofuran-2-yl)methylene)thiophene-2-carbohydrazide], for which the IC50 at native rhodanese (setting [1]) was more than 100 µM.
On to `O=C(N/N=C/c1ccc([N+](=O)[O-])o1)c1ccccc1` [Compound 18, N′-((5-nitrofuran-2-yl)methylene)benzohydrazide], for which, on native rhodanese (setting [1]), the IC50 turned out to be 84 µM.
In the case of `O=C(N/N=C/c1ccc([N+](=O)[O-])o1)c1ccncc1` [Compound 19, N′-((5-nitrofuran-2-yl)methylene)isonicotinohydrazide], at native rhodanese (setting [1]), the IC50 stood at 38 µM.
`CCN(CC)S(=O)(=O)c1cccc(C(=O)N/N=C/c2ccc([N+](=O)[O-])o2)c1` [Compound 25, N,N-diethyl-3-(2-((5-nitrofuran-2-yl)methylene)hydrazine-1-carbonyl)benzenesulfonamide]: the IC50 against E. coli GroEL/ES was 90 µM; at native rhodanese (setting [1]), more than 100 µM.
On to `O=C(N/N=C/c1ccc(O)c2ncccc12)c1ccc(Cl)s1` [Compound 4, 5-chloro-N′-((8-hydroxyquinolin-5-yl)methylene)thiophene-2-carbohydrazide], for which the IC50 on E. coli GroEL/ES is 9.6 µM; at native rhodanese (setting [1]), 14 µM.
Turning to `O=C(N/N=C/c1ccc([N+](=O)[O-])o1)c1ccc(O)cc1` [Nifuroxazide, reference compound], the IC50 on E. coli GroEL/ES is more than 100 µM; against native rhodanese, 69 µM.
Take `O=C(N/N=C/c1ccc(O)c2ncccc12)c1ccncc1` [Compound 6, N′-((8-hydroxyquinolin-5-yl)methylene)isonicotinohydrazide]: the IC50 at E. coli GroEL/ES and on native rhodanese (setting [1]) was more than 100 µM each time.
As for `O=C(N/N=C/c1ccc([N+](=O)[O-])o1)c1ccccc1Oc1ccccc1` [Compound 23, N′-((5-nitrofuran-2-yl)methylene)-2-phenoxybenzohydrazide], the IC50 on native rhodanese (setting [1]) came to 43 µM.
With `O=C1CN(/N=C/c2ccc([N+](=O)[O-])o2)C(=O)N1` [Nitrofurantoin, reference compound], the IC50 at native rhodanese is more than 100 µM.

Source of the values: US20220009914A1, “Analogs of Nitrofuran Antibiotics to Combat Resistance” (The Trustees of Indiana University, priority 2020, published 2022).
